From US20220016101A1 (ACADIA Pharmaceuticals Inc., priority 2018, published 2022)

Tested on: patients with MDD and an inadequate response to an SSRI or SNRI
Experiment: Massachusetts General Hospital Sexual Functioning Index (MGH-SFI), Study ACP-103-042
Format: in vivo, human
From the text: “Massachusetts General Hospital Sexual Functioning Index (MGH-SFI)” is described, for instance, in Labbate and Lare, 2001, Psychother Psychosom. 70(4):221-225. This is a patient facing questionnaire that quantifies sexual dysfunction into 5 functional domains (“interest in sex,” “sexual arousal,” “ability to achieve orgasm,” “ability to maintain erection” (males only), and “sexual satisfaction”). Patients rate each item using a 6-point scale ranging from 1 (good function) to 6 (poor function). High scores indicate poor sexual functioning. […] The determination of the subject's status and eligibility for randomization in Stage 2 was made in a double-blind manner. […] Sexual functioning was assessed using the Massachusetts General Hospital Sexual Functioning Index or MGH-SFI (Labbate and Lare, 2001, Psychother Psychosom. 70(4):221-225). This is a patient facing questionnaire that quantifies sexual dysfunction into 5 functional domains (“interest in sex,” “sexual arousal,” “ability to achieve orgasm,” “ability to maintain erection” [malesonly], and “sexual satisfaction”). Patients rate each item using a 6-point scale ranging from 1 (good function) to 6 (poor function). The time frame for this scale is the past month. This scale was administered at baseline and Week 5 in both stages of the study. High scores indicate poor sexual functioning. In ACP-103-042 the mean scores for MGH-SFI at Baseline was calculated over all 5 domains for males and the 4 domains for females. For MGH-SFI (follow-up version) at Study Weeks 5 and 10, the mean was calculated in the same way as MGH-SFI at Baseline. […] Tables 10-27 summarize the detailed data of MGH-SFI individual items of the overall study group (Tables 10-15), the subgroup of age of <=50 (Tables 16-21) and the subgroup of age of >50 (Table 21-26). In Tables 9-26, ANCOVA=analysis of covariance; OC=observed cases; LSM=least squares mean; CI=confidence interval; SD=standard deviation; SE=standard error. Stage 1: Baseline=Study Week 0, Week 5=Study Week 5; Stage 2: Baseline=Study Week 5, Week 5=Study Weeks 10. LSM from the stage-specific ANCOVA analysis with the change from baseline as the outcome, treatment group as a factor, and the corresponding Baseline value as a covariate. 2-sided p-value for treatment difference from the stage-specific ANCOVA analysis. An treatment effect size (Cohen's d) is calculated using the formula: Effect Size=Least Square mean difference between PIM and PBO/SD. The corresponding 95% confidence interval for an effect size is calculated based on the theoretical probability distribution of the effect size. […] Tables 10-15 and 28-38 summarize the detailed data of MGH-SFI individual items of the overall study group (Tables 10-15), the female subgroup (Tables 33-37) and the male subgroup (Table 38-43). An treatment effect size (Cohen's d) is calculated using the formula: Effect Size=Least Square mean difference between PIM and PBO/SD. The corresponding 95% confidence interval for an effect size is calculated based on the theoretical probability distribution of the effect size. In Tables 10-15 and 28-38, ANCOVA=analysis of covariance; OC=observed cases; LSM=least squares mean; CI=confidence interval; SD=standard deviation; SE=standard error. Stage 1: Baseline=Study Week 0, Week 5=Study Week 5; Stage 2: Baseline=Study Week 5, Week 5=Study Weeks 10. LSM from the stage-specific ANCOVA analysis with the change from baseline as the outcome, treatment group as a factor, and the corresponding Baseline value as a covariate. 2-sided p-value for treatment difference from the stage-specific ANCOVA analysis. An treatment effect size (Cohen's d) is calculated using the formula: Effect Size=Least Square mean difference between PIM and PBO/SD. The corresponding 95% confidence interval for an effect size is calculated based on the theoretical probability distribution of the effect size.

[1] = female subgroup, Stage 2, positive = pimavanserin better than placebo
[2] = male subgroup, Stage 1 (Study Week 0 to 5), PIM 34 mg
[3] = male subgroup, Stage 1 (Study Week 5), PIM 34 mg
[4] = male subgroup, Stage 1, PIM 34 mg
[5] = male subgroup, Stage 1, PIM 34 mg vs placebo, change from baseline to Week 5
[6] = male subgroup, Stage 1, PIM 34 mg, Week 5
[7] = male subgroup, Stage 2 (Study Week 5 to 10), PIM 34 mg
[8] = male subgroup, Stage 2 (Study Week 10), PIM 34 mg

In the case of CC(C)COc1ccc(CNC(=O)N(Cc2ccc(F)cc2)C2CCN(C)CC2)cc1 [pimavanserin, N-(4-Fluorophenylmethyl)-N-(1-methylpiperidin-4-yl)-N′-(4-(2-methylpropyloxy)phenylmethyl)carbamide], the “MGH-SFI 05: Overall Sexual Satisfaction, Effect Size (Cohen's d)” value [1] is reported as 0.227, the “MGH-SFI 06: Overall Improvement Since Last Medication Change, Effect Size (Cohen's d)” value [1] is reported as 0.167 and the “MGH-SFI 01: Interest in Sex, Change from Baseline to Week 5 Mean (SE)” value [2] is reported as −0.6 (1.04). For the same molecule, the “MGH-SFI 01: Interest in Sex, Change from Baseline to Week 5 Median” value [2] was −1.0, the “MGH-SFI 01: Interest in Sex, Week 5 Mean (SE)” value [3] was 4.1 (0.63) and the “MGH-SFI 01: Interest in Sex, Week 5 Median” value [3] was 5.0. The “MGH-SFI Item 02: Ability to Get Sexually Aroused or Excited, Change from Baseline to Week 5, Mean (SE)” value [4] was −0.7 (0.61), the “MGH-SFI Item 02: Ability to Get Sexually Aroused or Excited, Change from Baseline to Week 5, Median” value [4] was 0.0 and the “MGH-SFI Item 03: Ability to Achieve Orgasm, Change from Baseline to Week 5, Mean (SE)” value [4] was −0.4 (0.61). For the same molecule, the “MGH-SFI Item 03: Ability to Achieve Orgasm, Change from Baseline to Week 5, Median” value [4] was 0.0, the “MGH-SFI Item 04: (Men) Ability to Get and Maintain an Erection, Change from Baseline to Week 5, Mean (SE)” value [4] was −0.3 (0.78) and the “MGH-SFI Item 04: (Men) Ability to Get and Maintain an Erection, Change from Baseline to Week 5, Median” value [4] was 0.0. The “MGH-SFI Item 05: Overall Sexual Satisfaction, Change from Baseline to Week 5, Mean (SE)” value [4] was −0.6 (0.81), the “MGH-SFI Item 05: Overall Sexual Satisfaction, Change from Baseline to Week 5, Median” value [4] was 0.0 and the “MGH-SFI Item 06: Overall Improvement Since Last Medication Change, Effect Size (Cohen's d)” value (male subgroup, Stage 1, PIM 34 mg vs placebo, Week 5) was 0.257. The “MGH-SFI Item 02: Ability to Get Sexually Aroused or Excited, Effect Size (Cohen's d)” value [5] was 0.358, the “MGH-SFI Item 03: Ability to Achieve Orgasm, Effect Size (Cohen's d)” value [5] was 0.053 and the “MGH-SFI Item 04: (Men) Ability to Get and Maintain an Erection, Effect Size (Cohen's d)” value [5] was 0.105. For the same molecule, the “MGH-SFI Item 05: Overall Sexual Satisfaction, Effect Size (Cohen's d)” value [5] was 0.047, the “MGH-SFI Item 02: Ability to Get Sexually Aroused or Excited, Week 5, Mean (SE)” value [6] was 3.7 (0.68) and the “MGH-SFI Item 02: Ability to Get Sexually Aroused or Excited, Week 5, Median” value [6] was 4.0. For the same molecule, the “MGH-SFI Item 03: Ability to Achieve Orgasm, Week 5, Mean (SE)” value [6] was 4.1 (0.74), the “MGH-SFI Item 03: Ability to Achieve Orgasm, Week 5, Median” value [6] was 5.0 and the “MGH-SFI Item 04: (Men) Ability to Get and Maintain an Erection, Week 5, Mean (SE)” value [6] was 3.9 (0.70). For the same molecule, the “MGH-SFI Item 04: (Men) Ability to Get and Maintain an Erection, Week 5, Median” value [6] was 3.0, the “MGH-SFI Item 05: Overall Sexual Satisfaction, Week 5, Mean (SE)” value [6] was 4.6 (0.69) and the “MGH-SFI Item 05: Overall Sexual Satisfaction, Week 5, Median” value [6] was 5.0. For the same molecule, the “MGH-SFI Item 06: Overall Improvement Since Last Medication Change, Week 5, Mean (SE)” value [6] was 3.3 (0.64), the “MGH-SFI Item 06: Overall Improvement Since Last Medication Change, Week 5, Median” value [6] was 3.0 and the “MGH-SFI 01: Interest in Sex, Effect Size (Cohen's d)” value (male subgroup, Stage 1, positive = pimavanserin better than placebo) was 0.104. For the same molecule, the “MGH-SFI 01: Interest in Sex, Change from Baseline to Week 5 Mean (SE)” value [7] was −0.8 (0.32), the “MGH-SFI 01: Interest in Sex, Change from Baseline to Week 5 Median” value [7] was −1.0 and the “MGH-SFI 01: Interest in Sex, Week 5 Mean (SE)” value [8] was 3.6 (0.47). For the same molecule, the “MGH-SFI 01: Interest in Sex, Week 5 Median” value [8] was 4.0 and the “MGH-SFI Item 02: Ability to Get Sexually Aroused or Excited, Change from Baseline to Week 5, Mean (SE)” value (male subgroup, Stage 2, PIM 34 mg) was −0.6 (0.29).
